Structures can show the parent of a compound that is named as a salt.
Legend:
[1] = test system: ENR+CD organoids (ISC to Paneth cell differentiation); assay: Primary screen: basal (non-stimulated) lysozyme secretion LYZ.NS, 2.5-D 384-well ENR+CD organoid differentiation; assay type: cell-based, mouse; details: primary screen; for Z.LYZ.NS: standard z score
Text: (§1) High-throughput screening.

[2] = test system: ENR+CD organoids (ISC to Paneth cell differentiation); assay: Primary screen: CCh-stimulated lysozyme secretion LYZ.S, 2.5-D 384-well ENR+CD organoid differentiation; assay type: cell-based, mouse; details: primary screen
Text: as §1

ENR+CD organoids = assay: Primary screen: ATP (CellTiter-Glo 3D, CTG) cell number/viability, 2.5-D 384-well ENR+CD organoids; details: primary screen;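 further: compounds given at plating and again on day 3 over a 6-day differentiation from ENR+CV stem-cell-enriched precursors, ATP measured on day 6, plate median as control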
[3] = dose 0.08 uM, FC vs plate median
[4] = dose 0.40 uM, FC vs plate median
[5] = dose 2.00 uM, FC vs plate median
[6] = dose 10.00 uM, FC vs plate median

Compound | Dose.FC.LYZ.NS (log2 fold change) ([1]; dose 0.08 uM) | Z.LYZ.NS (standard z score) ([1]; dose 0.08 uM) | Dose.FC.LYZ.NS (log2 fold change) ([1]; dose 0.40 uM) | Z.LYZ.NS (standard z score) ([1]; dose 0.40 uM) | Dose.FC.LYZ.NS (log2 fold change) ([1]; dose 2.00 uM) | Z.LYZ.NS (standard z score) ([1]; dose 2.00 uM) | Dose.FC.LYZ.NS (log2 fold change) ([1]; dose 10.00 uM) | Z.LYZ.NS (standard z score) ([1]; dose 10.00 uM) | Dose.FC.LYZ.S (log2 fold change) ([2]; dose 0.08 uM) | Dose.FC.LYZ.S (log2 fold change) ([2]; dose 0.40 uM) | Dose.FC.LYZ.S (log2 fold change) ([2]; dose 2.00 uM) | Dose.FC.LYZ.S (log2 fold change) ([2]; dose 10.00 uM) | Dose.FC.CTG (log2 fold change) (ENR+CD organoids; dose 0.08 uM) | Z.CTG (standard z score) (ENR+CD organoids; dose 0.08 uM) | Dose.FC.CTG (log2 fold change) (ENR+CD organoids; dose 0.40 uM) | Z.CTG (standard z score) (ENR+CD organoids; dose 0.40 uM) | Dose.FC.CTG (log2 fold change) (ENR+CD organoids; dose 2.00 uM) | Z.CTG (standard z score) (ENR+CD organoids; dose 2.00 uM) | Dose.FC.CTG (log2 fold change) (ENR+CD organoids; dose 10.00 uM) | Z.CTG (standard z score) (ENR+CD organoids; dose 10.00 uM) | further results
O=C(O)CNC(=O)c1c(O)c2ccccc2n(Cc2ccccc2)c1=O [IOX2] | 0.029 | 0.254 | 0.028 | 0.246 | 0.043 | 0.376 | −0.045 | −0.388 | 0.047 | 0.071 | 0.001 | −0.049 | 0.149 | 0.356 | 0.078 | 0.185 | 0.097 | 0.232 | 0.001 | 0.002 | 
O=c1ncccn1[C@@H]1O[C@H](CO)[C@@H](O)[C@H]1O [Zebularine] |  | 0.223 |  | 0.075 |  | 0.828 |  | 0.749 |  |  |  |  |  |  |  |  |  |  |  |  | Dose.FC.LYZ.NS ([1]; dose 0.08 uM): 0.026 log2 fold change; Dose.FC.LYZ.NS ([1]; dose 0.40 uM): 0.009 log2 fold change; Dose.FC.LYZ.NS ([1]; dose 2.00 uM): 0.095 log2 fold change; Dose.FC.LYZ.NS ([1]; dose 10.00 uM): 0.086 log2 fold change; Dose.FC.LYZ.S ([2]; dose 0.08 uM): 0.092 log2 fold change; Dose.FC.LYZ.S ([2]; dose 0.40 uM): 0.077 log2 fold change; Dose.FC.LYZ.S ([2]; dose 2.00 uM): 0.051 log2 fold change; Dose.FC.LYZ.S ([2]; dose 10.00 uM): 0.102 log2 fold change; Dose.FC.CTG (ENR+CD organoids; dose 0.08 uM): 0.035 log2 fold change; Dose.FC.CTG (ENR+CD organoids; dose 0.40 uM): 0.000 log2 fold change; Dose.FC.CTG (ENR+CD organoids; dose 2.00 uM): −0.089 log2 fold change; Dose.FC.CTG (ENR+CD organoids; dose 10.00 uM): −0.167 log2 fold change
N#CC1(c2ccc(NC(=O)c3cccnc3NCc3ccncc3)cc2)CCCC1 [Apatinib] |  | 0.897 |  | 0.327 |  | 0.660 |  | 0.101 |  |  |  |  |  |  |  |  |  |  |  |  | Dose.FC.LYZ.NS ([1]; dose 0.08 uM): 0.103 log2 fold change; Dose.FC.LYZ.NS ([1]; dose 0.40 uM): 0.038 log2 fold change; Dose.FC.LYZ.NS ([1]; dose 2.00 uM): 0.076 log2 fold change; Dose.FC.LYZ.NS ([1]; dose 10.00 uM): 0.012 log2 fold change; Dose.FC.LYZ.S ([2]; dose 0.08 uM): 0.173 log2 fold change; Dose.FC.LYZ.S ([2]; dose 0.40 uM): 0.142 log2 fold change; Dose.FC.LYZ.S ([2]; dose 2.00 uM): 0.112 log2 fold change; Dose.FC.LYZ.S ([2]; dose 10.00 uM): 0.075 log2 fold change; Dose.FC.CTG (ENR+CD organoids; dose 0.08 uM): 0.223 log2 fold change; Dose.FC.CTG (ENR+CD organoids; dose 0.40 uM): 0.302 log2 fold change; Dose.FC.CTG (ENR+CD organoids; dose 2.00 uM): 0.270 log2 fold change; Dose.FC.CTG (ENR+CD organoids; dose 10.00 uM): 0.218 log2 fold change
Cc1cc(C(C)(C)C)c(O)c(C)c1CC1=NCCN1 [Oxymetazoline HCl] |  |  |  |  |  |  |  |  |  |  |  |  |  |  |  |  |  |  |  |  | Z.LYZ.NS ([1]; dose 0.08 uM): 0.515; Z.LYZ.NS ([1]; dose 0.40 uM): 0.134; Z.LYZ.NS ([1]; dose 2.00 uM): 0.199; Z.LYZ.NS ([1]; dose 10.00 uM): 0.065; Dose.FC.LYZ.NS [1, 3]: 0.059 log2 fold change; Dose.FC.LYZ.NS [1, 4]: 0.015 log2 fold change; Dose.FC.LYZ.NS [1, 5]: 0.023 log2 fold change; Dose.FC.LYZ.NS [1, 6]: 0.007 log2 fold change; Dose.FC.LYZ.S [2, 3]: 0.143 log2 fold change; Dose.FC.LYZ.S [2, 4]: 0.116 log2 fold change; Dose.FC.LYZ.S [2, 5]: −0.012 log2 fold change; Dose.FC.LYZ.S [2, 6]: −0.046 log2 fold change; Dose.FC.CTG (ENR+CD organoids; [3]): 0.143 log2 fold change; Dose.FC.CTG (ENR+CD organoids; [4]): 0.118 log2 fold change; Dose.FC.CTG (ENR+CD organoids; [5]): −0.007 log2 fold change; Dose.FC.CTG (ENR+CD organoids; [6]): 0.118 log2 fold change
Cn1cc(/C=C2\C(=O)Nc3cccnc32)c2ccccc21 [GW441756] | 0.046 | 0.399 | 0.061 | 0.529 | 0.117 | 1.023 | 0.088 | 0.763 | 0.075 | 0.196 | 0.125 | 0.071 | 0.048 | 0.114 | −0.105 | −0.252 | 0.152 | 0.364 | −0.113 | −0.270 | 
O=C(Nc1ccccc1)c1cc([N+](=O)[O-])ccc1Cl [GW9662] | 0.035 | 0.305 | 0.098 | 0.852 | 0.046 | 0.400 | 0.030 | 0.264 | 0.036 | 0.080 | 0.093 | 0.020 | 0.115 | 0.274 | 0.041 | 0.098 | 0.212 | 0.508 | 0.133 | 0.318 | 
